# What was measured:
# moulds = assay: Mould formation on stored bread product (visual observation); type: cell-based; details: bread stored at room temperature, relative humidity of 80%, visual observation during 1 month
# Method: The four above-mentioned doughs were mixed for half a minute at slow speed in a McDuffy mixer and then for 8.5 minutes at high speed in the same mixer. The dough temperature was 26° C. The resting time was 2 minutes (at room temperature). After said resting time 420 grams of each dough was taken, and the doughs (each of 420 grams) were then rounded up softly by hand. The initial proofing time was 6 minutes (at room temperature), after which the doughs were moulded into a certain baking form. The final proofing time (at 40° C. and a relative humidity of 80%) was determined, which appeared to be dependent on the type of further additive as contained in the four above-mentioned doughs. With “final proofing time” it is herein meant the time period of rising the dough, before baking, to a certain extent being a specific maximum volume. After this final proofing the doughs were baked for 20 minutes in an oven at 210° C. (top oven temperature) and at 230° C. (bottom oven temperature). The four bread products as obtained were then stored at room temperature (and at a relative humidity of 80%). During 1 month it was determined by means of visual observation whether or not moulds were formed on the four bread products.
# yeast = assay: Final proofing time of dough containing the additive; type: cell-based; details: 6.5 grams additive in dough; final proofing at 40° C. and relative humidity of 80%; time of rising to a specific maximum volume
# Method: Then a dough comprising the following ingredients was prepared: [table] Then a further additive was mixed with the above-mentioned dough: The four above-mentioned doughs were mixed for half a minute at slow speed in a McDuffy mixer and then for 8.5 minutes at high speed in the same mixer. The dough temperature was 26° C. The resting time was 2 minutes (at room temperature). After said resting time 420 grams of each dough was taken, and the doughs (each of 420 grams) were then rounded up softly by hand. The initial proofing time was 6 minutes (at room temperature), after which the doughs were moulded into a certain baking form. The final proofing time (at 40° C. and a relative humidity of 80%) was determined, which appeared to be dependent on the type of further additive as contained in the four above-mentioned doughs. With “final proofing time” it is herein meant the time period of rising the dough, before baking, to a certain extent being a specific maximum volume. After this final proofing the doughs were baked for 20 minutes in an oven at 210° C. (top oven temperature) and at 230° C. (bottom oven temperature). The four bread products as obtained were then stored at room temperature (and at a relative humidity of 80%). During 1 month it was determined by means of visual observation whether or not moulds were formed on the four bread products.
compound,measurement,setting,value
"CCC(=O)[O-].CCC(=O)[O-].[Ca+2] [Comparative, calcium propionate]",Mould formation on bread product,moulds,no
same,Final proofing time of dough,yeast,90 min
